Assays:
Assay type in all cases: in vivo
Digitaria sanguinalis [1] = assay: Post-emergence herbicidal effect; details: 80 g ai/ha, visual score after about 3 weeks
Experimental: (§1) [table] Seeds of monocotyledonous and dicotyledonous weed and crop plants are laid out in sandy loam soil in wood-fibre pots, covered with soil and cultivated in a greenhouse under good growth conditions. 2 to 3 weeks after sowing, the test plants are treated at the one-leaf stage. The compounds of the invention, formulated in the form of wettable powders (WP) or as emulsion concentrates (EC), are then sprayed onto the green parts of the plants as aqueous suspension or emulsion at a water application rate equating to 600 to 800 L/ha with addition of 0.2% wetting agent. After the test plants have been left to stand in the greenhouse under optimal growth conditions for about 3 weeks, the action of the preparations is assessed visually in comparison to untreated controls (herbicidal action in percent (%): 100% activity=the plants have died, 0% activity=like control plants).

Lolium rigidum [2] = assay: Post-emergence herbicidal effect; details: 80 g ai/ha, visual score after about 3 weeks
Experimental: as §1

Alopecurus myosuroides [3] = assay: Post-emergence herbicidal effect; details: 80 g ai/ha, visual score after about 3 weeks
Experimental: as §1

Avena fatua [4] = assay: Post-emergence herbicidal effect; details: 80 g ai/ha, visual score after about 3 weeks
Experimental: as §1

Setaria viridis [5] = assay: Post-emergence herbicidal effect; details: 80 g ai/ha, visual score after about 3 weeks
Experimental: as §1

Echinochloa crus-galli [6] = assay: Post-emergence herbicidal effect; details: 80 g ai/ha, visual score after about 3 weeks
Experimental: as §1

Digitaria sanguinalis [7] = assay: Pre-emergence herbicidal effect; details: visual score after 3 weeks
From the text: (§2) Seeds of monocotyledonous and dicotyledonous weed plants and crop plants are laid out in sandy loam soil in wood-fibre pots and covered with soil. The compounds of the invention, formulated in the form of wettable powders (WP) or as emulsion concentrates (EC), are then applied to the surface of the covering soil as aqueous suspension or emulsion at a water application rate equating to 600 to 800 L/ha with addition of 0.2% wetting agent. After the treatment, the pots are placed in a greenhouse and kept under good growth conditions for the trial plants. The damage to the test plants is scored visually after a test period of 3 weeks by comparison with untreated controls (herbicidal activity in percent (%): 100% activity=the plants have died, 0% activity=like control plants). [table]

Lolium rigidum [8] = assay: Pre-emergence herbicidal effect; details: visual score after 3 weeks
From the text: as §2

Viola tricolor = assay: Pre-emergence herbicidal effect; details: visual score after 3 weeks
From the text: as §2

Veronica persica = assay: Pre-emergence herbicidal effect; details: 320 g ai/ha, visual score after 3 weeks
From the text: as §2

Alopecurus myosuroides [9] = assay: Pre-emergence herbicidal effect; details: visual score after 3 weeks
From the text: as §2

Avena fatua [10] = assay: Pre-emergence herbicidal effect; details: visual score after 3 weeks
From the text: as §2

Abutylon threophrasti = assay: Pre-emergence herbicidal effect; details: 320 g ai/ha, visual score after 3 weeks
From the text: as §2

Matricaria inodora = assay: Pre-emergence herbicidal effect; details: 320 g ai/ha, visual score after 3 weeks
From the text: as §2

Setaria viridis [11] = assay: Pre-emergence herbicidal effect; details: visual score after 3 weeks
From the text: as §2

Amaranthus retroflexus = assay: Pre-emergence herbicidal effect; details: 320 g ai/ha, visual score after 3 weeks
From the text: as §2

Echinochloa crus-galli [12] = assay: Pre-emergence herbicidal effect; details: visual score after 3 weeks
From the text: as §2

Hordeum murinum = assay: Post-emergence herbicidal effect; details: 80 g ai/ha, visual score after about 3 weeks
Experimental: as §1

| Compound | Post-emergence activity DIGSA (Digitaria sanguinalis [1]) | Post-emergence activity LOLRI (Lolium rigidum [2]) | Post-emergence activity ALOMY (Alopecurus myosuroides [3]) | Post-emergence activity AVEFA (Avena fatua [4]) | Post-emergence activity SETVI (Setaria viridis [5]) | Post-emergence activity ECHCG (Echinochloa crus-galli [6]) | Pre-emergence activity DIGSA (Digitaria sanguinalis [7]; 80 g ai/ha) | Pre-emergence activity LOLRI (Lolium rigidum [8]; 80 g ai/ha) | Pre-emergence activity ALOMY (Alopecurus myosuroides [9]; 80 g ai/ha) | Pre-emergence activity AVEFA (Avena fatua [10]; 80 g ai/ha) | Pre-emergence activity SETVI (Setaria viridis [11]; 80 g ai/ha) | Post-emergence activity HORMU (Hordeum murinum) | also measured |
| --- | --- | --- | --- | --- | --- | --- | --- | --- | --- | --- | --- | --- | --- |
| CC#Cc1cc(C)c(C2=C(O)C3(CCC(COC)CC3)NC2=O)c(OC)c1 (stereo not drawn) [Example D6] | 100% | 100% | 100% | 100% | 100% | 100% | 100% | 100% | 80% | 80% | 100% | – | Pre-emergence activity DIGSA (Digitaria sanguinalis [7]; 320 g ai/ha): 100%; Pre-emergence activity LOLRI (Lolium rigidum [8]; 320 g ai/ha): 100%; Pre-emergence activity VIOTR (Viola tricolor; 320 g ai/ha): 100%; Pre-emergence activity VERPE (Veronica persica): 100%; Pre-emergence activity ALOMY (Alopecurus myosuroides [9]; 320 g ai/ha): 100%; Pre-emergence activity AVEFA (Avena fatua [10]; 320 g ai/ha): 100%; Pre-emergence activity ABUTH (Abutylon threophrasti): 100%; Pre-emergence activity MATIN (Matricaria inodora): 90%; Pre-emergence activity SETVI (Setaria viridis [11]; 320 g ai/ha): 100%; Pre-emergence activity AMARE (Amaranthus retroflexus): 100%; Pre-emergence activity ECHCG (Echinochloa crus-galli [12]; 320 g ai/ha): 100% |
| CC#Cc1cc(C)c(C2=C(OC(=O)CC)C3(CCCC(OCCC)C3)NC2=O)c(OC)c1 (stereo not drawn) [Example P5] | 100% | 100% | 100% | 100% | 100% | 100% | – | – | – | – | – | 100% | – |
| CC#Cc1cc(C)c(C2=C(OC(=O)OCC)C3(CCC(OCCC)CC3)NC2=O)c(OC)c1 (stereo not drawn) [Example Q2] | 100% | 100% | 100% | 90% | 100% | 100% | 100% | 100% | 100% | 80% | 100% | – | Pre-emergence activity DIGSA (Digitaria sanguinalis [7]; 320 g ai/ha): 100%; Pre-emergence activity LOLRI (Lolium rigidum [8]; 320 g ai/ha): 100%; Pre-emergence activity VIOTR (Viola tricolor; 80 g ai/ha): 100%; Pre-emergence activity VIOTR (Viola tricolor; 320 g ai/ha): 100%; Pre-emergence activity VERPE (Veronica persica): 90%; Pre-emergence activity ALOMY (Alopecurus myosuroides [9]; 320 g ai/ha): 100%; Pre-emergence activity AVEFA (Avena fatua [10]; 320 g ai/ha): 100%; Pre-emergence activity ABUTH (Abutylon threophrasti): 90%; Pre-emergence activity MATIN (Matricaria inodora): 100%; Pre-emergence activity SETVI (Setaria viridis [11]; 320 g ai/ha): 100%; Pre-emergence activity AMARE (Amaranthus retroflexus): 100%; Pre-emergence activity ECHCG (Echinochloa crus-galli [12]; 80 g ai/ha): 100%; Pre-emergence activity ECHCG (Echinochloa crus-galli [12]; 320 g ai/ha): 100% |
| C=CCOC1CCC2(CC1)NC(=O)C(c1c(C)cc(C#CC)cc1OC)=C2OC(=O)OC (stereo not drawn) [Example Q3] | 90% | 100% | 100% | 80% | 100% | 100% | – | – | – | – | – | 100% | – |
| C=CCOC1CCC2(CC1)NC(=O)C(c1c(C)cc(C#CC)cc1OC)=C2O (stereo not drawn) [Example D5] | 100% | 100% | 100% | 100% | 100% | 100% | – | – | – | – | – | 100% | – |
| CC#Cc1cc(C)c(C2=C(OC(=O)C(C)C)C3(CCCC(OCCC)C3)NC2=O)c(OC)c1 (stereo not drawn) [Example P4] | 90% | 100% | 100% | 100% | 100% | 100% | – | – | – | – | – | 100% | – |
| CC#Cc1cc(C)c(C2=C(O)C3(CCCC(OCCC)C3)NC2=O)c(OC)c1 (stereo not drawn) [Example D1, 4-Hydroxy-3-[2-methoxy-6-methyl-4-(prop-1-yn-1-yl)phenyl]-7-propoxy-1-azaspiro[4.5]dec-3-en-2-one] | 100% | 100% | 100% | 100% | 100% | 100% | – | – | – | – | – | 100% | – |
| CC#Cc1cc(C)c(C2=C(OC(=O)OCC)C3(CCCC(OCCC)C3)NC2=O)c(OC)c1 (stereo not drawn) [Example P3] | 100% | 100% | 100% | 100% | 100% | 100% | – | – | – | – | – | 100% | – |
| C=CCOC1CCC2(CC1)NC(=O)C(c1c(C)cc(C#CC)cc1OC)=C2OC(=O)C(C)C (stereo not drawn) [Example Q5] | 100% | 100% | 100% | – | 100% | 100% | – | – | – | – | – | 90% | – |
| C=CCOC1CCC2(CC1)NC(=O)C(c1c(C)cc(C#CC)cc1OC)=C2OC(=O)OCC (stereo not drawn) [Example Q4] | 100% | 100% | 100% | 90% | 100% | 100% | 100% | 100% | 100% | 90% | 100% | 100% | Pre-emergence activity VIOTR (Viola tricolor; 80 g ai/ha): 100%; Pre-emergence activity ECHCG (Echinochloa crus-galli [12]; 80 g ai/ha): 100% |
| CC#Cc1cc(C)c(C2=C(OC(=O)OC)C3(CCCC(OCCC)C3)NC2=O)c(OC)c1 (stereo not drawn) [Example P2] | 100% | 100% | 100% | 100% | 100% | 100% | – | – | – | – | – | 100% | – |
| CC#Cc1cc(C)c(C2=C(O)C3(CCC(OC(C)C)CC3)NC2=O)c(OC)c1 (stereo not drawn) [Example D3] | 100% | 100% | 100% | 100% | 100% | 100% | 100% | 100% | 100% | 80% | 100% | 80% | Pre-emergence activity VIOTR (Viola tricolor; 80 g ai/ha): 100%; Pre-emergence activity ECHCG (Echinochloa crus-galli [12]; 80 g ai/ha): 100% |

— patent publication US20220177428A1, “SPECIFICALLY SUBSTITUTED 3-(2-ALKOXY-6-ALKYL-4-PROPINYLPHENYL)-3-PYRROLIN-2-ONES AND THEIR USE AS HERBICIDES” (Bayer Aktiengesellschaft, priority 2019, published 2022)
